These results are taken from ChEMBL document CHEMBL1177877, “Synthesis and in vitro evaluation of substituted pyrimido[5,4-d]pyrimidines as a novel class of anti-Mycobacterium tuberculosis agents” (Eur J Med Chem, 2010).

The test system of experiment [1] is Mycobacterium tuberculosis. The experiment can be described thus: Antimycobacterial activity against Mycobacterium tuberculosis H37Rv. It is filed as functional, organism-based.
A further experiment concerns Vero. As to the kind of experiment: Cytotoxicity against african green monkey Vero cells. It is filed as cell-based. Particulars: Chlorocebus sabaeus.
The nature of experiment [2]: Selectivity index, EC50 for against african green monkey Vero cells to IC50 for Mycobacterium tuberculosis H37Rv. In kind it is functional.

≈ marks a conversion by molar mass, not a printed value.

As usually defined, the IC50 is the concentration that gives 50% inhibition. As usually defined, the IC90 is the concentration at which the effect reaches the 90% level. As usually defined, the EC50 is the concentration that produces a half-maximal response. Consider `N=c1c2ncnc(Nc3ccccc3)c2ncn1NC(=O)c1ccccc1`, for which, in experiment [1], the IC50 was found to be 3.65 µg/mL (≈ 10.2 µM) and the concentration for an effect of 90% (IC90) turned out to be 17.4 µM. The EC50 in the experiment with Vero worked out at 2.35 µg/mL (≈ 6.58 µM). In addition, the Ratio in experiment [2] is recorded as 0.38.

In the case of `N=c1c2ncnc(Nc3ccccc3)c2ncn1NC(=O)c1ccco1`, in experiment [1], the IC50 was 3.16 µg/mL (≈ 9.1 µM) and the IC90 came to 14 µM.

In experiment [1], `CC(=O)Nn1cnc2c(Nc3ccccc3)ncnc2c1=N` yielded an IC50 of 44.9 µg/mL (≈ 152 µM) and an IC90 greater than 314 µM.

In experiment [1], `N#Cc1ccc(Nc2ncnc3c(=N)n(NC(=O)c4ccncc4)cnc23)cc1` gave an IC50 of 17.2 µg/mL (≈ 44.9 µM) and an IC90 greater than 240 µM.

In experiment [1], `COc1ccc(Nc2ncnc3c(=N)n(NC(=O)c4ccccc4)cnc23)cc1` gave an IC50 of 4.11 µg/mL (≈ 10.6 µM) and an IC90 of 23.4 µM. The response in the experiment with Vero was half-maximal at 2.12 µg/mL (≈ 5.47 µM) (EC50). The Ratio in experiment [2] is listed as 0.23.

In experiment [1], `COc1ccc(Nc2ncnc3c(=N)n(NC(=O)c4ccco4)cnc23)cc1` returned an IC50 of 3.56 µg/mL (≈ 9.43 µM) and a 90% effect concentration (IC90) of 261 µM.

In experiment [1], `COc1ccc(Nc2ncnc3c(=N)n(NC(C)=O)cnc23)cc1` returned an IC50 of 46.5 µg/mL (≈ 143 µM) and a 90% effect concentration (IC90) greater than 298 µM.

On to `N=c1c2ncnc(Nc3ccccc3)c2ncn1NC(=O)c1ccncc1`, for which, in experiment [1], the IC50 came out at 4.3 µg/mL (≈ 12 µM) and the IC90 amounted to 21 µM. In the experiment on Vero, the response was half-maximal at 4.37 µg/mL (≈ 12.2 µM) (EC50). The Ratio in experiment [2] stood at 0.57.

Take `CC(=O)Nn1cnc2c(Nc3ccc(C#N)cc3)ncnc2c1=N`: in experiment [1], the IC50 was determined as 42.1 µg/mL (≈ 131 µM) and the IC90 is greater than 311 µM.

In experiment [1], `N#Cc1ccc(Nc2ncnc3c(=N)n(NC(=O)c4ccccc4)cnc23)cc1` came in with an IC50 of 2.47 µg/mL (≈ 6.46 µM) and an IC90 of 36.1 µM.

In experiment [1], `N=c1c2ncnc(Nc3ccc(F)cc3)c2ncn1NC(=O)c1ccncc1` registered an IC50 of 0.91 µg/mL (≈ 2.42 µM) and an IC90 of 9.12 µM. Further, in the experiment on Vero, the EC50 worked out at 1.53 µg/mL (≈ 4.07 µM). Also, the Ratio in experiment [2] is 0.43.

Regarding `N=c1c2ncnc(Nc3ccc(F)cc3)c2ncn1NC(=O)c1ccccc1`, in experiment [1], half-maximal inhibition (IC50) was put at 2.92 µg/mL (≈ 7.78 µM) and the IC90 stood at 13.5 µM. Moreover, a half-maximal effect in the experiment on Vero (EC50) was put at 3.05 µg/mL (≈ 8.13 µM). Also, the Ratio in experiment [2] is 0.6.

As for `N=c1c2ncnc(Nc3ccc(F)cc3)c2ncn1NC(=O)c1ccco1`, in experiment [1], the IC50 worked out at 2.17 µg/mL (≈ 5.94 µM) and it took 9.77 µM to reach the 90% level (IC90).

Consider `CC(=O)Nn1cnc2c(Nc3ccc(F)cc3)ncnc2c1=N`, for which, in experiment [1], the 50% inhibitory concentration (IC50) was 18.7 µg/mL (≈ 59.7 µM) and the IC90 was determined as 91.4 µM.

In experiment [1], `COc1ccc(Nc2ncnc3c(=N)n(NC(=O)c4ccncc4)cnc23)cc1` had an IC50 of 1.59 µg/mL (≈ 4.09 µM) and an IC90 of 9.49 µM. Further, the response in the experiment with Vero was half-maximal at 1.15 µg/mL (≈ 2.96 µM) (EC50). Besides, the Ratio in experiment [2] amounted to 0.27.
